Converted amounts (≈) assume the structure as drawn.
Assays:
[1] = cited from earlier work
[2] = molecular target: T1, SIRT1 (Homo sapiens, UniProt Q96EB6); test: Fluor-de-Lys biochemical sirtuin deacetylation assay, SIRT1 counter-screen; conditions: for SIRT1 inhibition: 10 μM counter-screen
T1 sequence (Q96EB6 1-747): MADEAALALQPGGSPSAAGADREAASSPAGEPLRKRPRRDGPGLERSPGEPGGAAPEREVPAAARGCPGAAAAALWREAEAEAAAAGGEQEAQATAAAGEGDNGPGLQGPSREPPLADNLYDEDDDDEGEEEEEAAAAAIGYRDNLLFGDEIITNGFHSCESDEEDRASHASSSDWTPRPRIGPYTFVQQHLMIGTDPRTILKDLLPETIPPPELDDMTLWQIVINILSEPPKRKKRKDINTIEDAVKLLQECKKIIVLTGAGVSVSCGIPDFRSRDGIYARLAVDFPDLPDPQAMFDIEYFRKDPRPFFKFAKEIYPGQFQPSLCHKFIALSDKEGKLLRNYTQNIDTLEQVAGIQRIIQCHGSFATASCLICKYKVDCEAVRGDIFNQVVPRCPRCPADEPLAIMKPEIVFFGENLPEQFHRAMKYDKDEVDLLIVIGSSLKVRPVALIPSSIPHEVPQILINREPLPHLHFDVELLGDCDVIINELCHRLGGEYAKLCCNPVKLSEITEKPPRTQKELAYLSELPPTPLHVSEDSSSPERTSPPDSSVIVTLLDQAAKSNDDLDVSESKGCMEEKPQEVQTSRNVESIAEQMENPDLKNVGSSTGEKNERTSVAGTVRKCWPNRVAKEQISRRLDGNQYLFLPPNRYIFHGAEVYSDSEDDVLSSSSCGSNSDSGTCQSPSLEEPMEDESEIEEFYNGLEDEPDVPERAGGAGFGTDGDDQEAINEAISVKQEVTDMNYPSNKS
Procedure: (§1) To evaluate the potency and selectivity of the synthesized compounds robust, sensitive, and quantitative, biochemical sirtuin deacetylation assays were employed. (SIRT2 then SIRT1 and SIRT3 for selectivity). Sirtuin activity was assessed using the Fluor-de-Lys assay with recombinant active enzymes SIRT1, SIRT2, and the catalytically active fragment of SIRT3, as described in the literature. […] AK-1 was included as the reference compound with each assay. […] Those compounds also were subjected to SIRT1 and SIRT3 assays to determine sirtuin selectivity.
(§2) As discussed above, Tables 1-10 are presented and followed by details relating to the synthesis and characterization of compounds prepared. Inhibition assays and related testing of such compounds are conducted according to well-known literature protocols including those found in Silverman, et al., Biorg. Med. Chem. Lett. 22 (2012) 2789-2793 and the references cited therein, such references and tests incorporated herein by reference.

[3] = molecular target: T2, catalytically active fragment of SIRT3 (Homo sapiens, UniProt Q9NTG7); test: Fluor-de-Lys biochemical sirtuin deacetylation assay, SIRT3 counter-screen; conditions: 10 μM counter-screen
T2 construct: the catalytically active fragment of SIRT3
T2 sequence (Q9NTG7 118-380 limits assumed): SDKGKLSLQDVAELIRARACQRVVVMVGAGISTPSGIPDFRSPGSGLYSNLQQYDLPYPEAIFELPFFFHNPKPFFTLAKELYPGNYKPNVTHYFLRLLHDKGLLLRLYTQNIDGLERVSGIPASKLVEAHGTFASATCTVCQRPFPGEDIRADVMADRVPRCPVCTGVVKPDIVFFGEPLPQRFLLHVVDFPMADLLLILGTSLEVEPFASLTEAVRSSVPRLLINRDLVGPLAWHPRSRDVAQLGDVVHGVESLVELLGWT
Procedure: as §1, §2

[4] = Microsomal stability screen, human; conditions: 1 μM
[5] = test system: α-tubulin K40 acetylation (SIRT2 substrate) in N2a cells; test: α-tubulin K40 acetylation (Western) in neuronal N2a cells; assay type: cell-based; conditions: N2a cells, 10, 25, 50 μM, 6 h
Procedure: FIGS. 2A-B. Cell-based assay for evaluating the bioactivity of SIRT2 inhibitors. A) Extracts from neuronal N2a cells treated with 61 and 64 for 6 h were resolved on SDS-PAGE and analyzed by Western analysis using antibodies specific to acetylated α-tubulin, and normalized to GADPH and total α-tubulin (not shown) levels.
To assess SIRT2 inhibition activity in cells, an increase in α-tubulin K40 acetylation (α-tubulin is a substrate for SIRT2) in neuronal N2a and in wild type and HD ST141 cell lines was measured. In this bioactivity test, extracts from compound-treated cells were resolved on SDS-PAGE and subjected to Western analysis using primary antibodies specific to K40 acetylated α-tubulin. Trichostatin A (TSA), a potent HDAC inhibitor, was used as a positive control. To normalize the levels of acetylated α-tubulin we used total α-tubulin and GADPH proteins, detected by Western reactive antibodies specific to total α-tubulin and GADPH. […] FIGS. 2A-B show the bioactivity of 61 and 64 in N2a cells at three tested concentrations (10, 25, and 50 μM). Toxicity of the compounds was monitored in both cell lines, and most of them were non-toxic up to 50 μM in a 6 h treatment.

[6] = Microsomal stability screen, mouse; conditions: 1 μM
[7] = PBS Express solubility; conditions: aqueous buffer, kinetic from dmso stock
[8] = molecular target: T3, SIRT2 (Homo sapiens, UniProt Q8IXJ6); test: Fluor-de-Lys biochemical sirtuin deacetylation assay, SIRT2; conditions: for inhibition at 10 µM: sulfone, sulfoxide, thioether derivatives of C2-8 scaffold
T3 construct: recombinant active enzymes SIRT1, SIRT2, and the catalytically active fragment of SIRT3
T3 sequence (Q8IXJ6 1-389): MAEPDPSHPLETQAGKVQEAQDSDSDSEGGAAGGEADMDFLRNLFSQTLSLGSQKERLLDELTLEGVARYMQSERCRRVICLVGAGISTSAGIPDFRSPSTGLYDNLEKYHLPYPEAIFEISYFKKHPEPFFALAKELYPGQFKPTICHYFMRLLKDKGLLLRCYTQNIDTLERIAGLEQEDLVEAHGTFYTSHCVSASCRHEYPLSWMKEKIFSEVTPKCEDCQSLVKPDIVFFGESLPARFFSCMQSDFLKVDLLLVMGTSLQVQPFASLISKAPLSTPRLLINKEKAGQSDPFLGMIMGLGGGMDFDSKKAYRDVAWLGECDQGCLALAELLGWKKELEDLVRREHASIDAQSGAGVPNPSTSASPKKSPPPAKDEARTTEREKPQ

[9] = Microsomal intrinsic clearance, mouse; conditions: for microsomal CLint at 1 μM / half-life at 1 μM: mouse, microsomes
[10] = Plasma half life
[11] = Microsomal intrinsic clearance, human; conditions: for microsomal CLint at 1 μM / half-life at 1 μM: human, microsomes
[12] = test system: huntingtin (htt) aggregation; conditions: R6/2 mice; cited from earlier work
[13] = in vivo; cited from earlier work
[14] = test system: htt aggregation; conditions: 140 CAG knock-in model of HD; cited from earlier work
[15] = test system: polyQ aggregation; conditions: cell-based model; read-out: suppression of aggregation, EC50; cited from earlier work

O=C(Nc1cccc([N+](=O)[O-])c1)c1cccc(S(=O)(=O)N2CCCCCC2)c1 [AK-1]
aqueous solubility [1]: low aqueous solubility

O=C(Nc1cccc(Br)c1)c1cccc(S(=O)(=O)N2CCCCCC2)c1 [AK-7]
aqueous solubility [1]: low aqueous solubility

O=C(Nc1nccs1)c1cccc(S(=O)(=O)Nc2ccc(Cl)cc2)c1 [Compound 31, 3-(N-(4-chlorophenyl)sulfamoyl)-N-(thiazol-2-yl)benzamide]
inhibition at 10 µM ([2]; 10 μM): 65% | SIRT3 inhibition [3]: totally inactive

O=C(Nc1ccc(Cl)cn1)c1cccc(S(=O)(=O)Nc2ccc(Cl)cn2)c1 [Compound 41, N-(5-chloropyridin-2-yl)-3-(N-(5-chloropyridin-2-yl)sulfamoyl)benzamide]
SIRT3 inhibition [3]: minimal SIRT3 inhibition

CN(c1ccc(F)cc1)S(=O)(=O)c1cccc(C(=O)Nc2ccc(Cl)cn2)c1 [Compound 43, N-(5-chloropyridin-2-yl)-3-(N-(4-fluorophenyl)-N-methylsulfamoyl)benzamide]
SIRT1 inhibition [2]: minimal SIRT1 inhibition

CN(c1ccc(Cl)cc1)S(=O)(=O)c1cccc(C(=O)Nc2ccc(C(F)(F)F)cn2)c1 [Compound 56, 3-(N-(4-chlorophenyl)-N-methylsulfamoyl)-N-(5-(trifluoromethyl)pyridin-2-yl)benzamide]
SIRT1 inhibition [2]: minimal SIRT1 inhibition

CN(c1ccc(Cl)cc1)S(=O)(=O)c1cccc(C(=O)Nc2ccc(O)cn2)c1 [Compound 58, 3-(N-(4-chlorophenyl)-N-methylsulfamoyl)-N-(5-hydroxypyridin-2-yl)benzamide]
SIRT3 inhibition [3]: minimal SIRT3 inhibition

CN(c1ccc(Cl)cc1)S(=O)(=O)c1cccc(C(=O)Nc2ccc(S(C)(=O)=O)cc2)c1 [Compound 61, 3-(N-(4-Chlorophenyl)-N-methylsulfamoyl)-N-(4-(methylsulfonyl)phenyl)benzamide]
Mean remaining parent NADPH-free (%) [4]: 112% | Mean remaining parent with NADPH (%) [4]: 2% | increase in α-tubulin K40 acetylation [5]: dose-dependent increase | Mean remaining parent NADPH-free (%) [6]: 100% | Mean remaining parent with NADPH (%) [6]: 4%

CN(c1ccc(Cl)cc1)S(=O)(=O)c1cccc(C(=O)Nc2ccc(C#N)cc2)c1 [Compound 64, 3-(N-(4-Chlorophenyl)-N-methylsulfamoyl)-N-(4-cyanophenyl)benzamide]
increase in α-tubulin K40 acetylation [5]: dose-dependent increase

CC(=O)c1ccc(N(C)S(=O)(=O)c2cccc(C(=O)Nc3ccc(C#N)cc3)c2)cc1 [Compound 106, 3-(N-(4-Acetylphenyl)-N-methylsulfamoyl)-N-(4-cyanophenyl)benzamide]
SIRT1 inhibition [2]: minimal SIRT1 inhibition | SIRT3 inhibition [3]: minimal SIRT3 inhibition

N#Cc1ccc(NC(=O)c2cccc(S(=O)(=O)Cc3ccc(Cl)cc3)c2)cc1 [Compound 174, 3-((4-Chlorobenzyl)sulfonyl)-N-(4-cyanophenyl)benzamide]
Mean remaining parent NADPH-free (%) [4]: 93% | Mean remaining parent with NADPH (%) [4]: 89% | solubility at 45 min [7]: 62.5 µM (≈ 25.7 µg/mL) | solubility at 16 h [7]: 62.5 µM (≈ 25.7 µg/mL) | inhibition at 10 µM [8]: 40% | potency compared with 59 ([8]; SIRT2 assay (61 also cell-based tubulin deacetylation assay)): more potent than 59 | SIRT2 inhibition potency compared with AK-1 ([8]; dose-response, five doses, side-by-side with AK-1): equal or just slightly better potency | Mean remaining parent NADPH-free (%) [6]: 100% | Mean remaining parent with NADPH (%) [6]: 68%

C[S+]([O-])c1ccc(NC(=O)c2cccc(SCc3ccc(Cl)cc3)c2)cc1 (centres unmarked) [Compound 182, 3-((4-chlorobenzyl)thio)-N-(4-(methylsulfinyl)phenyl)benzamide]
% remaining 60 min ([9]; 1 μM, 60 min): 0.8% | microsomal CLint at 1 μM ([9]; NADPH-dependent CLint): 445 µL/min/mg | half-life at 1 μM ([9]; NADPH-dependent T1/2 (min)): 5.2 min | microsomal CLint at 1 μM ([9]; NADPH-free CLint): 58 µL/min/mg | half-life at 1 μM ([9]; NADPH-free T1/2 (min)): 40 min | solubility at 45 min [7]: 15.6 µM (≈ 6.49 µg/mL) | solubility at 16 h [7]: 15.6 µM (≈ 6.49 µg/mL) | Fraction remaining, last time point (%) ([10]; Mouse plasma, 5 μM): 62% | half-life at 5 μM ([10]; mouse, plasma): 89 min | inhibition at 10 µM [8]: 60% | % remaining 60 min ([11]; 1 μM, 60 min): 5.3% | microsomal CLint at 1 μM ([11]; NADPH-dependent CLint): 241 µL/min/mg | half-life at 1 μM ([11]; NADPH-dependent T1/2 (min)): 9.6 min | microsomal CLint at 1 μM ([11]; NADPH-free CLint): 39 µL/min/mg | half-life at 1 μM ([11]; NADPH-free T1/2 (min)): 59 min

O=C(Nc1ccc(Br)cc1)c1cccc(S(=O)(=O)Nc2ccc(Br)cc2)c1 [Compound C2-8]
inhibition of huntingtin (htt) aggregation in the striatum [12]: 25-30% | toxicity in acute and chronic tolerability studies [13]: not toxic | reduction of htt aggregation [14]: 50% | EC50 [15]: 0.05 µM | aqueous solubility [1]: low aqueous solubility

CC(C)[N+](C)(CCOC(=O)C1c2ccccc2Oc2ccccc21)C(C)C [Propantheline, reference compound]
Fraction remaining, last time point (%) ([10]; Mouse plasma, 5 μM): 3.4% | Plasma T1/2 ([10]; Mouse plasma, 5 μM): 18 min

From US9890117B2, “Benzamide compounds and related methods of use” (Northwestern University, priority 2012, dated 2018)
